The supplement of paper PMC10627819

Key:
Settings in all cases: main component drawn
S. aureus Newman [1] = assay: Bliss interaction score (quartile over a dose matrix) (fitness difference); higher = more antagonism (negative = synergy)
Procedure, shortened: (§1)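 Fitness is OD595 at stationary-phase entry relative to the plate's robust no-drug mean, capped at 1. Single-drug fitness was inferred from combinations. The Bliss score is observed minus product-expected fitness, summarised by quartiles over technical, biological and donor/recipient replicates.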

B. subtilis 168 [2] = assay: as above
Procedure, shortened: as §1

S. aureus DSM 20231 = assay: as above
Procedure, shortened: as §1

S. pneumoniae D39V [3] = assay: as above
Procedure, shortened: as §1

S. aureus Newman [4] = assay: fitness (endpoint OD595 vs no drug) (fraction); higher = more growth
Procedure, shortened: (§2)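 Background-subtracted growth curves were the basis for fitness, taken as the optical density at entry into stationary phase over the robust mean of no-drug control wells. A cap of 1 was applied. The curves came from OD595 readings every 30 min for 14 h at 37 °C, in 384-well plates seeded at OD595 0.01 with 30 µl, or 55 µl for S. pneumoniae.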

B. subtilis 168 [5] = assay: as above
Procedure, shortened: as §2

S. pneumoniae D39V [6] = assay: as above
Procedure, shortened: as §2
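Wherever Bliss interaction score (quartile over a dose matrix) is given: first quartile when negative (synergy) and third quartile when positive (antagonism).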

CN[C@@H]1[C@H](O[C@H]2[C@H](O[C@H]3[C@H](O)[C@@H](O)[C@H](N=C(N)N)[C@@H](O)[C@@H]3N=C(N)N)O[C@@H](C)[C@]2(O)C=O)O[C@@H](CO)[C@H](O)[C@H]1O [Streptomycin] + CCCCCCCCCC(=O)N[C@@H]1[C@H]([C@@H]([C@H](O[C@H]1OC2=C3C=C4C=C2OC5=C(C=C(C=C5)[C@H]([C@H]6C(=O)N[C@@H](C7=C(C(=CC(=C7)O)OC8[C@H]([C@H]([C@@H]([C@H](O8)CO)O)O)O)C9=C(C=CC(=C9)[C@H](C(=O)N6)NC(=O)[C@@H]4NC(=O)[C@@H]1C2=CC(=CC(=C2)OC2=C(C=CC(=C2)[C@H](C(=O)N[C@H](CC2=CC(=C(O3)C=C2)Cl)C(=O)N1)N)O)O)O)C(=O)O)O[C@H]1[C@@H]([C@H]([C@@H]([C@H](O1)CO)O)O)NC(=O)C)Cl)CO)O)O [Teicoplanin]
Settings	Bliss interaction score
B. subtilis 168 [2]	-0.0977
S. aureus DSM 20231	-0.227
S. aureus Newman [1]	-0.118
S. pneumoniae D39V [3]	-0.0928

fitness, S. aureus Newman [4]
Settings	first compound 1 µg/mL	first compound 2 µg/mL	first compound 4 µg/mL
partner 0.1562 µg/mL	≥ 1	≥ 1	–
partner 0.3125 µg/mL	≥ 1	0.932	–
partner 0.625 µg/mL	0.917	0.803	0.344

fitness, S. aureus Newman [4], one replicate
Settings	first compound 2 µg/mL	first compound 4 µg/mL	first compound 8 µg/mL
partner 0.62 µg/mL	0.737	0.574	0.0838
partner 1.24 µg/mL	0.527	0.0741	0.0255
partner 2.48 µg/mL	0.0707	0.0385	0.103

CC(=O)NC[C@H]1CN(c2ccc(N3CCOCC3)c(F)c2)C(=O)O1 [Linezolid] + CCC(C)C1C(=O)NC(=C)C(=O)NC(C(=O)NC(CSCC(C(=O)N1)NC(=O)/C(=C/C)/NC(=O)C(C(C)CC)N)C(=O)NC2C(SCC(NC(=O)CNC(=O)C3CCCN3C2=O)C(=O)NC(CCCCN)C(=O)NC4C(SCC(NC(=O)CNC(=O)C(NC(=O)C(NC(=O)C(NC(=O)CNC4=O)C)CC(C)C)CCSC)C(=O)NC(CC(=O)N)C(=O)NC(CCSC)C(=O)NC(CCCCN)C(=O)NC5C(SCC6C(=O)NC(C(=O)NC(CSC(C(C(=O)N6)NC(=O)C(NC5=O)C)C)C(=O)NC(CO)C(=O)NC(C(C)CC)C(=O)NC(CC7=CN=CN7)C(=O)NC(C(C)C)C(=O)NC(=C)C(=O)NC(CCCCN)C(=O)O)CC8=CN=CN8)C)C)C)CC(C)C [Nisin]
Settings	Bliss interaction score
B. subtilis 168 [2]	-0.0535
S. aureus DSM 20231	-0.0557
S. aureus Newman [1]	-0.0621
S. pneumoniae D39V [3]	-0.0674

fitness, B. subtilis 168 [5], one replicate
Settings	first compound 0.0625 µg/mL	first compound 0.125 µg/mL	first compound 0.25 µg/mL	first compound 0.5 µg/mL
partner 0.5 µg/mL	0.875	–	–	0.0342
partner 1 µg/mL	0.743	–	–	0.0597
partner 1.25 µg/mL	–	0.734	0.502	0.074
partner 1.6 µg/mL	–	0.411	0.0282	0.027
partner 2 µg/mL	0.547	–	–	0.0406
partner 2.5 µg/mL	–	0.187	0.118	0.0568
partner 3.2 µg/mL	–	0.0219	0.0214	0.042
partner 4 µg/mL	–	0.038	0.0369	0.023
partner 5 µg/mL	–	0.0523	0.0422	0.0652
partner 6.4 µg/mL	–	0.0537	0.0573	0.0278
partner 8 µg/mL	–	0.0224	0.0244	0.019
partner 16 µg/mL	–	0.0095	0.0006	0.0145

Settings	fitness
B. subtilis 168 [5], first compound 0.125 µg/mL, partner 0.5 µg/mL	0.503
B. subtilis 168 [5], first compound 0.125 µg/mL, partner 1 µg/mL	0.421
B. subtilis 168 [5], first compound 0.125 µg/mL, partner 2 µg/mL	0.111
B. subtilis 168 [5], first compound 0.25 µg/mL, partner 0.5 µg/mL	0.167
B. subtilis 168 [5], first compound 0.25 µg/mL, partner 1 µg/mL	0.0862
B. subtilis 168 [5], first compound 0.25 µg/mL, partner 2 µg/mL	0.0407
S. pneumoniae D39V [6], first compound 0.105 µg/mL, partner 1.6 µg/mL	0.0032
S. pneumoniae D39V [6], first compound 0.105 µg/mL, partner 3.2 µg/mL	0.0264
S. pneumoniae D39V [6], first compound 0.105 µg/mL, partner 6.4 µg/mL	0.015
S. pneumoniae D39V [6], first compound 0.2 µg/mL, partner 0.4275 µg/mL	0.804
S. pneumoniae D39V [6], first compound 0.2 µg/mL, partner 0.855 µg/mL	0.657
S. pneumoniae D39V [6], first compound 0.2 µg/mL, partner 1.71 µg/mL	0.0574
S. pneumoniae D39V [6], first compound 0.21 µg/mL, partner 1.6 µg/mL	0
S. pneumoniae D39V [6], first compound 0.21 µg/mL, partner 3.2 µg/mL	0.0008
S. pneumoniae D39V [6], first compound 0.21 µg/mL, partner 6.4 µg/mL	0
S. pneumoniae D39V [6], first compound 0.4 µg/mL, partner 0.4275 µg/mL	0.63
S. pneumoniae D39V [6], first compound 0.4 µg/mL, partner 0.855 µg/mL	0.314
S. pneumoniae D39V [6], first compound 0.4 µg/mL, partner 1.71 µg/mL	0.0313
S. pneumoniae D39V [6], first compound 0.42 µg/mL, partner 1.6 µg/mL	0.0074
S. pneumoniae D39V [6], first compound 0.42 µg/mL, partner 3.2 µg/mL	0.0019
S. pneumoniae D39V [6], first compound 0.42 µg/mL, partner 6.4 µg/mL	0.0156
S. pneumoniae D39V [6], first compound 0.8 µg/mL, partner 0.4275 µg/mL	0.132
S. pneumoniae D39V [6], first compound 0.8 µg/mL, partner 0.855 µg/mL	0.0545
S. pneumoniae D39V [6], first compound 0.8 µg/mL, partner 1.71 µg/mL	0.0571
